According to patent publication US11873298B2, “Compounds and uses thereof” (JANSSEN PHARMACEUTICA NV, priority 2017, dated 2024):
“And” between values parts separate entries of the source, which are not always exact repeats. Equal entries are not always repeated.

What was measured:
Type in all cases: cell-based
Ole1 = target: T1, Ole1 (Saccharomyces cerevisiae, UniProt P21147); test: Growth inhibition of yeast strain expressing Ole1 as sole desaturase; details: yeast strain expressing Ole1 as sole desaturase
T1 construct: expressed in transfected cells; host or cells: S. cerevisiae ole1Δ strain (W303 pdr1Δ pdr3Δ background), plasmid pRS316 with TDH3 promoter and CYC1 terminator
T1 sequence (P21147 1-510): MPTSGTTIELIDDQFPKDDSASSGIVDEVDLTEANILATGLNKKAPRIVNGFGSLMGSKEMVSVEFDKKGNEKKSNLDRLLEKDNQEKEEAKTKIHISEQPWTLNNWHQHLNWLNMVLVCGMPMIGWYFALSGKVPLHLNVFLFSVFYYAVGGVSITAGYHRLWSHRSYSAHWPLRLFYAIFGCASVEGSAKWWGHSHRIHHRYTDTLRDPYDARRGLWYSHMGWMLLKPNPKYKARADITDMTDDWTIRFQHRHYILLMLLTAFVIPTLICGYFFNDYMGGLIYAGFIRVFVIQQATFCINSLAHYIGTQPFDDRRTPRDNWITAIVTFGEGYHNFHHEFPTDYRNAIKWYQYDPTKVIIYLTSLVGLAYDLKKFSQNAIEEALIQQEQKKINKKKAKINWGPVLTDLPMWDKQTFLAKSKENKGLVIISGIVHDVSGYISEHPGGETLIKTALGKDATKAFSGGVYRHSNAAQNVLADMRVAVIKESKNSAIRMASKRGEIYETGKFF
Procedure: Strain oleΔ (yeast ole1 deletion mutant) was constructed by deleting OLE1 with NAT-MX6 in BY4741, amplifying the deletion cassette from the genomic DNA of the resulting strain with primers flanking the ORF by 1000 bp upstream and downstream, transforming the resulting deletion cassette into W303 pdr1Δ pdr3Δ, and plating transformants on YPD media containing G418 (200 μg/mL) and nourseothricin ([…]) with 0.01% TWEEN®-20 and 0.5 mM oleic and palmitoleic acids.
The coding sequence of yeast OLE1 was also cloned into this plasmid). These clones were then transformed into the ole1Δ strain and plated on CSM-Ura media (CSM lacking uracil) with 2% glucose (w/v) and independent colonies were isolated and amplified.
All compound profiling experiments were performed using the same basic protocol. Different genetic backgrounds (e.g., gene deletions) or conditions (e.g., addition of oleic and palmitoleic acid) were replaced as indicated below.
Yeast were cultured using standard techniques in complete synthetic media (CSM) and yeast nitrogen base supplemented with 2% (w/v) carbon source (glucose, raffinose, or galactose) to regulate the expression of the toxic disease protein. An initial starter culture was inoculated in 3 mL CSM-Glucose media and incubated overnight in a 30° C. shaker incubator (225 rpm). Saturated morning cultures were then diluted 1:20 in fresh CSM-Raffinose media and grown for 6 h to an OD600 (optical density) of ˜0.4-0.8 at 30° C. with shaking.
Compound administration was performed in two separate steps. First, 15 μL of CSM-Galactose (induces expression of toxic protein) was dispensed into clear 384 well assay plates using a MULTIDROP™ Combi reagent dispenser. […] The cultures described above were then diluted to a 2× concentration (0.03 and 0.08 for alpha-synuclein and ApoE, final ODsoo of 0.015 and 0.04) in CSM-Galactose. For wild-type and Ole1/SCD1/SCD5 plasmid-containing strains, the 2× cell density was 0.02. […] For 96-well assays (FIGS. 1A and 1B), compound dilutions in DMSO were generated in 96 well plates and 1 μL was manually pipetted into 96 well clear bottom assay plates.
For experiments using a plasmid-borne copy of Ole1, SCD1, or SCD5 (FIGS. 3B, 6, and 7), media lacking uracil (SX-Ura, where X is glucose, raffinose, or galactose), was used for all steps of the compound profiling protocol to ensure its maintenance throughout the assay.
After yeast delivery, assay plates were incubated under humidified conditions at 30° C. for 24 to 40 h. ApoE4 rescue experiments were stopped at 24 h, aSyn experiments at 40 h, Ole1 at 24 h, and SCD1/SCD5 at 40 h. The growth of yeast was monitored by reading the ODsoo of each well using a microplate reader (Perkin Elmer EnVision™).

SCD1 = target: T2, SCD1 (Homo sapiens, UniProt O00767); test: Growth inhibition of humanized yeast strain expressing SCD1 as sole desaturase; details: humanized yeast strain expressing SCD1
T2 construct: host or cells: S. cerevisiae ole1Δ strain (W303 pdr1Δ pdr3Δ background), plasmid pRS316 with TDH3 promoter and CYC1 terminator
T2 sequence (O00767 1-359): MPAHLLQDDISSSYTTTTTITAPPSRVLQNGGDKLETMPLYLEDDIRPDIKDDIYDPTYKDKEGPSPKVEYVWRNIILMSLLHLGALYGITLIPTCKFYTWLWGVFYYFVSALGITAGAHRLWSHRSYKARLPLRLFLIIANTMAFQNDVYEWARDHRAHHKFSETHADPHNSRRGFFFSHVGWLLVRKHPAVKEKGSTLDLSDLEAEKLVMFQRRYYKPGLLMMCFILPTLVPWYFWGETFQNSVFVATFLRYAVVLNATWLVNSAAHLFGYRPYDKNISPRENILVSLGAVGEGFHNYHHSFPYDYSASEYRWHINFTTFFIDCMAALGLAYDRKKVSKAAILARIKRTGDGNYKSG
Summary of the method: (§1)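 ole1Δ yeast (W303 pdr1Δ pdr3Δ background) carrying plasmid-borne Ole1, SCD1 or SCD5, grown in uracil-free media; cultures pre-grown in raffinose, seeded at 2× density 0.02 in galactose media with compound. Growth read as OD600 after 24 h at 30° C. for Ole1, 40 h for SCD1/SCD5.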

SCD5 = target: T3, SCD5 (Homo sapiens, UniProt Q86SK9); test: Growth inhibition of humanized yeast strain expressing SCD5 as sole desaturase; details: humanized yeast strain expressing SCD5
T3 construct: host or cells: S. cerevisiae ole1Δ strain (W303 pdr1Δ pdr3Δ background), plasmid pRS316 with TDH3 promoter and CYC1 terminator
T3 sequence (Q86SK9 1-330): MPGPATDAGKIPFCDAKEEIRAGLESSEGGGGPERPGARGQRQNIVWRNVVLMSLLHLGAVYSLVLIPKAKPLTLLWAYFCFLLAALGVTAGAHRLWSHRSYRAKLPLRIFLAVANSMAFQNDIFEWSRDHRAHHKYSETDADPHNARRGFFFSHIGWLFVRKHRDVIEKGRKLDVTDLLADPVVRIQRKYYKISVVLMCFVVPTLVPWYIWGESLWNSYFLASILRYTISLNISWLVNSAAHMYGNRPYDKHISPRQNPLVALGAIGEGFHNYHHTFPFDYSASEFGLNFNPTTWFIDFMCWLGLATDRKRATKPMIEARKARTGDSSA
Summary of the method: as §1

| SMILES | IC50 (Ole1) | OLE1 % Max Inhibition (Ole1) | IC50 (SCD1) [µM] | SCD1 % Max Inhibition (SCD1) | IC50 (SCD5) [µM] | SCD5 % Max Inhibition (SCD5) |
| --- | --- | --- | --- | --- | --- | --- |
| CCOC(=O)C(C)(C)n1ncc2ccc(-c3noc(C4CCN(C(=O)C5CC(=O)N(c6ccccc6)C5)CC4)n3)cc21 (stereo not shown) [Compound 196] | > 45 µM | 93.87% | > 45 | 86.58% | > 45 | 75.88% |
| CCOc1ccc(-c2noc(N3CCC(C(=O)N4CCO[C@H](c5ccccc5)C4)CC3)n2)cc1OC [Compound 218] | > 45 µM | 4.63% | > 45 | 48.31% | > 45 | 25.15% |
| Cc1nn(C)c2cc(-c3noc(C4CCN(C(=O)[C@H]5CN(c6ccccc6)C(=O)O5)CC4)n3)ccc12 [Compound 173] | > 45 µM | 99.75% | > 45 | 78.07% | 29.8 | 42.09% |
| COc1cc(-c2noc(C3CCN(C(=O)CNC(=O)c4ccccc4)CC3)n2)ccc1OC1CC1 [Compound 249] | > 45 µM | 88.69% | – | 80.12% | 41.7 | 61.88% |
| Cc1nn(C)c2cc(-c3noc(C4CCN(C(=O)[C@@H]5CC(=O)N(c6ccc(C#N)cc6)C5)CC4)n3)ccc12 [Compound 308] | > 45 µM and 27.2 µM | 63.7% and 49.30% | ≥ 45 | 81.6% and 61.05% | > 45 | 15.5% and 6.81% |
| O=C([C@H]1CC(=O)N(c2ccccc2)C1)N1CCC(c2nc(N3CC4(COC4)C3)no2)CC1 [Compound 316] | ≥ 45 µM | 89.26% | ≥ 45 | 69.01% | – | 80% |
| Cc1nn(C)c2cc(-c3noc(C4(C)CCN(C(=O)CNC(=O)c5ccccc5)CC4)n3)ccc12 [Compound 227] | > 45 µM | 1.24% | 38.3 | 63.76% | > 45 | 6.17% |
| Cn1c(=O)n(C)c2cc(-c3noc(C4CCN(C(=O)CNC(=O)c5ccccn5)CC4)n3)ccc21 [Compound 230] | > 45 µM | 2.63% | > 45 | 78.48% | > 45 | 44.00% |
| O=C(C1CC(=O)N(c2ccccc2)C1)N1CCC(c2nc(N3CC4(COC4)C3)no2)CC1 (stereo not shown) [Compound 231] | > 45 µM | 29.53% | > 45 | 80.00% | > 45 | 3.11% |
| CC(C)(CO)n1cc2ccc(-c3noc(C4CCN(C(=O)CNC(=O)c5ccccc5)CC4)n3)cc2n1 [Compound 202] | > 45 µM | 94.93% | > 45 | 74.09% | > 45 | 74.20% |
| CCn1nc(C)c2ccc(-c3noc(C4CCN(C(=O)OC(C)(C)C)CC4)n3)cc21 [Compound 301] | > 45 µM | 99.4% | – | 96.2% | > 45 | 21.0% |
| CC(C)(CO)n1cc2ccc(-c3noc(C4CCN(C(=O)C5CC(=O)N(c6ccccc6)C5)CC4)n3)cc2n1 (stereo not shown) [Compound 201] | > 45 µM | 85.29% | > 45 | 79.67% | 32.9 | 65.14% |
| Cc1nn(C)c2cc(-c3noc(C4CCN(C(=O)CNC(=O)c5cccc(C#N)c5)CC4)n3)ccc12 [Compound 322] | > 45 µM | 9.0% | – | 73.6% | > 45 | 29.8% |
| COc1ccc(-c2noc(C3CCN(C(=O)c4cccc(C(C)C)c4)CC3)n2)cc1OC [Compound 167] | 38.4 µM | 57.28% | > 45 | 6.11% | > 45 | 2.38% |
| Cc1nn(C)c2cc(-c3noc(C4CCN(S(=O)(=O)C(C)C)CC4)n3)ccc12 [Compound 279] | > 45 µM | 83.07% | – | 43.86% | > 45 | 21.97% |
| CC(C)n1cc(-c2noc(C3CCN(C(=O)C4CC(=O)N(c5cccc(Cl)c5)C4)CC3)n2)cn1 (stereo not shown) [Compound 338] | > 45 µM | 85.2% | > 45 | 60.0% | > 45 | 76.3% |
